Measured values: PMC10275983 (Nature Communications, 2023)

Columns and labels:
[1] = test system: SARS-CoV-2; conditions: combined with ritonavir; initiated within three days of symptom onset; interim results of Phase II-III studies; cited from earlier work
Text: Small molecule antivirals offer potential advantages over antibody therapeutics. […] During the early months of the pandemic, huge multinational effort was initiated to repurpose already approved antiviral or immunosuppressive drugs. One such drug was remdesivir, a nucleoside analog chain terminator that blocks replication of viral RNA[17].

[2] = test system: SARS-CoV-2/human/Liverpool/REMRQ0001/2020; format: in vivo

Row | Compound | reduced hospitalization risk [1] [%] | inflammatory markers (cytokine and chemokine transcripts) in lung and nasal turbinate ([2]; K18 hACE2 mice N=4, day 4 post-infection, same dosing, qPCR) | infectious virus in the lungs (plaque assay on lung homogenate) ([2]; mouse, in vivo) | viral RNA levels in nasal turbinates (qPCR, sub-genomic E gene) ([2]; mouse, in vivo)
1 | CC(C)(C)[C@H](NC(=O)C(F)(F)F)C(=O)N1C[C@H]2[C@@H]([C@H]1C(=O)N[C@H](C#N)C[C@@H]1CCNC1=O)C2(C)C [nirmatrelvir] | 89 |  |  | 
2 | CCC(CC)COC(=O)[C@H](C)N[P@](=O)(OC[C@H]1O[C@@](C#N)(c2ccc3c(N)ncnn23)[C@H](O)[C@@H]1O)Oc1ccccc1 [remdesivir] |  | remained substantially elevated | only partially decreased viraemia | no significant impact
